Data taken from paper PMC6364417, “Kinase inhibitor library screening identifies synergistic drug combinations effective in sensitive and resistant melanoma cells” (Journal of Experimental & Clinical Cancer Research : CR, 2019).

Key:
Test in all cases: Kinase inhibitor library screening, PrestoBlue cell viability, 1 or 10 μM, 72 h
A375 cells (parental) = details: A375 Parental, 72 h
Method: (§1) After 72 h of treatment, cell viability was assessed using the PrestoBlue Cell Viability Reagent (ThermoFisher Scientific). Measurements were performed with the CLARIOstar Monochromator microplate reader (BMG Labtech).
(§2) Kinase inhibitor library screening. […] Each cell line was treated in its sensitive form (parental), and also as 2 resistant derivatives, which were made resistant to either Vemurafenib (XP) or Dabrafenib (GP). Drugs were added at 2 different concentrations, 1 and 10 μM, for 72 h and cell viability was assessed using the PrestoBlue Cell Viability assay. Results are depicted as % viability compared to untreated cells. Each cell line was analyzed at least in duplicate. […] (XLSX 95 kb)

501Mel cells (parental) = details: 501Mel Parental
Method: as §1, §2

[1] = tested on: IGR37-XP cells (Vemurafenib-resistant); details: IGR37 XP
Method: as §1, §2

[2] = tested on: IGR37-GP cells (Dabrafenib-resistant); details: IGR37 GP
Method: as §1, §2

[3] = tested on: A375-XP cells (Vemurafenib-resistant); details: A375 XP
Method: as §1, §2

[4] = tested on: 501Mel-GP cells (Dabrafenib-resistant); details: 501Mel GP
Method: as §1, §2

[5] = tested on: 501Mel-XP cells (Vemurafenib-resistant); details: 501Mel XP
Method: as §1, §2

IGR37 cells (parental) = details: IGR37 Parental
Method: as §1, §2

[6] = tested on: A375-GP cells (Dabrafenib-resistant); details: A375 GP
Method: as §1, §2

Compound	cell viability (kinase inhibitor library screening) (A375 cells (parental); 1μΜ) [%]	cell viability (kinase inhibitor library screening) (501Mel cells (parental); 1μΜ, 72 h) [%]	cell viability (kinase inhibitor library screening) (501Mel cells (parental); 10μΜ, 72 h) [%]	cell viability (kinase inhibitor library screening) ([1]; 10μΜ, 72 h) [%]	cell viability (kinase inhibitor library screening) ([2]; 1μΜ, 72 h) [%]	cell viability (kinase inhibitor library screening) ([2]; 10μΜ, 72 h) [%]	cell viability (kinase inhibitor library screening) ([4]; 1μΜ, 72 h) [%]	cell viability (kinase inhibitor library screening) ([4]; 10μΜ, 72 h) [%]	cell viability (kinase inhibitor library screening) ([5]; 1μΜ, 72 h) [%]	cell viability (kinase inhibitor library screening) ([5]; 10μΜ, 72 h) [%]	cell viability (kinase inhibitor library screening) (IGR37 cells (parental); 1μΜ, 72 h) [%]	cell viability (kinase inhibitor library screening) (IGR37 cells (parental); 10μΜ, 72 h) [%]	cell viability (kinase inhibitor library screening) ([6]; 1μΜ, in %)	cell viability (kinase inhibitor library screening) ([6]; 10μΜ, in %)	cell viability (kinase inhibitor library screening) (501Mel cells (parental); 1μΜ, in %)	cell viability (kinase inhibitor library screening) (501Mel cells (parental); 10μΜ, in %)	cell viability (kinase inhibitor library screening) ([1]; 1μΜ, in %)	cell viability (kinase inhibitor library screening) ([1]; 10μΜ, in %)	cell viability (kinase inhibitor library screening) ([2]; 1μΜ, in %)	cell viability (kinase inhibitor library screening) ([2]; 10μΜ, in %)	other results
OCCn1cc(-c2cnc3nnn(Cc4ccc5ncccc5c4)c3n2)cn1 [PF-04217903]	111.4	97.4	99.2	67.3	105.7	91.4	89.0	82.3	68.7	68.6	119.0	104.5									cell viability (kinase inhibitor library screening) ([3]; 1μΜ, 72 h): 107.0%; cell viability (kinase inhibitor library screening) ([3]; 10μΜ, 72 h): 110.9%
Cn1cc(-c2ccc3nnc(Sc4ccc5ncccc5c4)n3n2)cn1 [SGX-523]	104.5	95.0	89.4	74.3	94.1	90.7	82.6	64.3	67.2	58.8	107.3	94.5									cell viability (kinase inhibitor library screening) (A375 cells (parental); 10μΜ): 97.1%; cell viability (kinase inhibitor library screening) ([6]; 1μΜ, 72 h): 89.5%; cell viability (kinase inhibitor library screening) ([6]; 10μΜ, 72 h): 94.8%; cell viability (kinase inhibitor library screening) ([1]; 1μΜ, 72 h): 100.4%
AZD4547																					cell viability, A375 Parental, 10μΜ (A375 cells (parental); 10μΜ): 58.2; cell viability, 501Mel Parental, 10μΜ (501Mel cells (parental); 10μΜ, 72 h): 11.5; cell viability, IGR37 XP, 1μΜ ([1]; 1μΜ, 72 h): 94.4; cell viability, IGR37 XP, 10μΜ ([1]; 10μΜ, 72 h): 6.4; cell viability, IGR37 GP, 1μΜ ([2]; 1μΜ, 72 h): 93.7; cell viability, IGR37 GP, 10μΜ ([2]; 10μΜ, 72 h): 19.5; cell viability, A375 XP, 1μΜ ([3]; 1μΜ, 72 h): 100.3; cell viability, A375 XP, 10μΜ ([3]; 10μΜ, 72 h): 49.7; cell viability, 501Mel GP, 10μΜ ([4]; 10μΜ, 72 h): 57.3; cell viability, 501Mel XP, 1μΜ ([5]; 1μΜ, 72 h): 93.2; cell viability, 501Mel XP, 10μΜ ([5]; 10μΜ, 72 h): 14.1; cell viability, IGR37 Parental, 10μΜ (IGR37 cells (parental); 10μΜ, 72 h): 46.6
N#CC1(c2ccc(NC(=O)c3cccnc3NCc3ccncc3)cc2)CCCC1 [Apatinib (YN968D1)]													97.5	98.6	103.5	103.9	105.2	86.2	94.0	95.0	cell viability (kinase inhibitor library screening) ([3]; 1μΜ, in %): 103.9; cell viability (kinase inhibitor library screening) ([3]; 10μΜ, in %): 105.3; cell viability (kinase inhibitor library screening) ([4]; 1μΜ, in %): 102.7; cell viability (kinase inhibitor library screening) ([4]; 10μΜ, in %): 98.0; cell viability (kinase inhibitor library screening) ([5]; 1μΜ, in %): 112.2; cell viability (kinase inhibitor library screening) ([5]; 10μΜ, in %): 105.3; cell viability (kinase inhibitor library screening) (IGR37 cells (parental); 1μΜ, in %): 103.0; cell viability (kinase inhibitor library screening) (IGR37 cells (parental); 10μΜ, in %): 105.2
CCn1c(N)c(C(=O)NC)c(=O)c2ccc(C#C[C@@](C)(O)COC)nc21 [SAR131675]													103.2	87.6	96.4	92.6	94.6	71.4	93.4	96.6	cell viability (kinase inhibitor library screening) ([3]; 1μΜ, in %): 108.8; cell viability (kinase inhibitor library screening) ([4]; 1μΜ, in %): 103.5; cell viability (kinase inhibitor library screening) ([4]; 10μΜ, in %): 90.9; cell viability (kinase inhibitor library screening) ([5]; 1μΜ, in %): 103.7; cell viability (kinase inhibitor library screening) ([5]; 10μΜ, in %): 85.3; cell viability (kinase inhibitor library screening) (IGR37 cells (parental); 1μΜ, in %): 100.2; cell viability (kinase inhibitor library screening) (IGR37 cells (parental); 10μΜ, in %): 99.7
